Test [1] deals with T1, purified I-Au class II molecules (Mus musculus, UniProt P06344+P14438).
T1 sequence (P14438 1-227): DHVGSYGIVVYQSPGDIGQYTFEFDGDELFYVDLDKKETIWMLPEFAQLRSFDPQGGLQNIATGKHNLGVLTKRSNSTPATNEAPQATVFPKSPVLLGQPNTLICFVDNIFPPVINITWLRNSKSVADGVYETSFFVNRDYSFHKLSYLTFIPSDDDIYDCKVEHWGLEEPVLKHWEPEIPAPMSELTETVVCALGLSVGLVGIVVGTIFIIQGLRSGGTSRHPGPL
T1 sequence (P06344 28-263): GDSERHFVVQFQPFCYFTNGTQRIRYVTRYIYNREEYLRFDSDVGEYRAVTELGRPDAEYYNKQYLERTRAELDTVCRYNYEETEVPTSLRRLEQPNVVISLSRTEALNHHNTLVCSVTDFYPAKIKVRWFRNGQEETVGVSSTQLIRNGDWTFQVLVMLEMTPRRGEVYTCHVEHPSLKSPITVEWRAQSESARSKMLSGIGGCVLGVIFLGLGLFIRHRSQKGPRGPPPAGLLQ
Briefly: Class II-peptide-binding inhibition assay, I-Au.

For test [2], the system named is T cell-enriched splenic cells from 12-14-wk-old female BWF1 mice. The experiment in a line: Proliferation of unprimed splenic T cells in response to peptides. The class given is cell-based, mouse. To be noted: result in words.
In another test the test system is BWF1 mice. The experiment in a line: Pathogenic potential: immunization of young BWF1 mice with peptides. The format is in vivo, mouse. The settings on record: p34 or p84 immunization vs PBS/CFA/alum; p <0.05.
Test [3] addresses I-Ad class II molecule (mouse). The experiment in a line: radioligand binding.

Where no end group is shown, it is not given here.

As for `C[C@H](NC(=O)[C@H](C)NC(=O)[C@H](Cc1c[nH]cn1)NC(=O)[C@H](C)NC(=O)[C@H](C)NC(=O)[C@H](Cc1c[nH]cn1)NC(=O)[C@H](C)NC(=O)[C@H](C)NC(=O)[C@H](Cc1c[nH]cn1)NC(=O)[C@H](C)NC(=O)[C@H](C)NC(=O)[C@H](Cc1c[nH]cn1)NC(=O)[C@H](C)NC(=O)[C@H](C)NC(=O)[C@H](Cc1c[nH]cn1)NC(=O)[C@H](C)NC(=O)[C@@H](N)Cc1ccc(O)cc1)C(=O)O` [RO IV], the half-maximal inhibitory concentration (IC50) in test [1] stood at 8 nM.
MNWVKQSHGKSL [p34]: in test [2], the “proliferative responses in naive BWF1 T cells” value was “elicit proliferative responses”. For the same compound, in the test with BWF1 mice, the plasma creatinine levels result is on record as “increase in plasma creatinine levels”.
Compound “OVA 323-336 (from UniProt P01012 324-337) (peptide)” displayed an IC50 in test [3] of 110 nM.

Broadly, the IC50 is the concentration at which inhibition is half-maximal. Read a low IC50 as greater potency.
